System: Src-transformed NIH3T3 fibroblasts
Assay: TUNEL staining for apoptosis, Src-transformed NIH3T3 fibroblasts
Type: cell-based, mouse
Settings: 48 h treatment, FIG. 7
Description: FIG. 7 is a photograph showing induction of apoptosis by platinum complexes. Normal NIH3T3 fibroblasts and their v-Src-transformed counterparts were treated with platinum complexes for 48 h and analyzed for evidence of DNA damage using TUNEL staining kit.
Proliferating cells were counted by phase-contrast microscopy for viable cells (using trypan blue exclusion. TUNEL staining was carried according to supplier's instructions to detect apoptotic cells. Cells (NIH3T3 or NIH3T3/v-Src) were first treated with or without compounds 24-48 h prior to staining.
Studies have established a critical role for constitutive Stat3 signaling in the survival of transformed and tumor cells (Catlett-Falcone et al., 1999a; Grandis et al., 2000a; Epling-Burnette et al., 2001; Bowman et al., 2000b; Grandis et al., 2000b; Horiguchi et al., 2002). Effects of the subject platinum compounds on viability and survival of malignant cells were evaluated. To determine whether inhibition of persistently-active Stat3 by the subject compounds results in apoptosis, Src-transformed and normal mouse fibroblasts were treated with the subject platinum compounds and subjected to TUNEL staining for evidence of apoptosis.

| Compound | Apoptosis (TUNEL staining) in Src-transformed NIH3T3 fibroblasts |
| --- | --- |
| O=[N+]([O-])[Pt]1([Cl])([Cl])([Cl])[NH]CC[NH]1 [ISS CPA-1] | strong apoptosis |
| [NH2][Pt]([NH2])([Cl])([Cl])([Cl])[N+](=O)[O-] [ISS CPA-7] | strong apoptosis |
